Data as given in US20090082388A1 (ACADIA PHARMACEUTICALS INC., priority 2007, published 2009).

How the values were obtained:
[1] = system: 31 of the 36 human monoaminergic receptors; assay: Functional activity at human monoaminergic receptors; conditions: 5-HT1A, 1B, 1D, 1E, 1F, 2B, 3, 4, 6A, 7A; adrenergic α1A, α1B, α1D, α2A, α2B, β2; dopamine D1-D4; histamine H1-H3
[2] = Half-life upon oral administration to humans; conditions: human, in vivo
[3] = target: dopamine receptors including the D2 and D4 receptors; assay: Affinity to dopamine receptors; assay type: binding
[4] = Clearance from in vitro human microsomes; assay type: in vitro ADME; conditions: read-out: clearance rate from in vitro human microsomes
[5] = system: mice with a deletion of the M1 muscarinic receptor (M1KO) or wild-type (WT) controls; assay: Hyperactivity study with M1 knock-out mice; assay type: in vivo
Experimental: A linear regression analysis was then conducted to determine the theoretical dose that would produce a 50% reduction of activity (ED50) and 95% confidence interval. Mice had no prior exposure to the chambers and each dose combination was tested in separate groups of mice.

[6] = system: mice receiving ICV infusion of amyloid β protein fragment (25-35) or saline (sham); assay: Amphetamine-induced hyperactivity study with amyloid β protein; assay type: in vivo; conditions: pimavanserin 0.3 mg/kg, amphetamine 3 mg/kg, FIG. 8
Experimental: This study was conducted in acrylic chambers (42 cm×42 cm×30 cm) equipped with 16 infrared photobeams along each horizontal axis (front-to-back and side-to-side, from Accuscan Instruments, Inc. (Columbus, Ohio)). Subjects were mice receiving ICV infusion of amyloid β protein fragment (25-35) or ICV infusion of saline (sham) for 7-10 days.
An amphetamine-induced hyperactivity study was conducted on the subjects. Subjects were injected with amphetamine (3 mg/kg) or vehicle 15 minutes prior to entering motor activity chambers. Activity was measured as a total distance traveled (DT) in centimeters (cm) and was determined in 20 minute increments across a 60 minute session.
Activity was measured as a total distance traveled (DT) in centimeters (cm) and was determined in 20 minute increments across a 60 minute session.

[7] = cited from earlier work
[8] = system: amphetamine-induced hyperactivity in mice; assay: Amphetamine-induced hyperactivity with tacrine or xanomeline; assay type: in vivo; conditions: amphetamine 3 mg/kg, pimavanserin 0.03 mg/kg where combined
Experimental: This study was conducted in acrylic chambers (42 cm×42 cm×30 cm) equipped with 16 infrared photobeams along each horizontal axis (front-to-back and side-to-side, from Accuscan Instruments, Inc., Columbus, Ohio). […] Vehicle or a drug (either tacrine or xanomeline) was injected 30 minutes prior to entering activity chambers. Amphetamine (3 mg/kg) was injected into mice 15 minutes prior to entering motor activity chambers. Mice had no prior exposure to the chambers and each dose combination was tested in separate groups of mice.
Activity was measured as total distance traveled (DT) in centimeters and was determined across a 15 minute session. Dose response curves were constructed for the drug in the presence of either vehicle or a fixed dose of pimavanserin. In order to generate dose-response curves, raw DT data were converted to percent inhibition, % MPI=((DT drug or drug combination−DT amphetamine control)/(DT vehicle control−DT amphetamine control))*100. A linear regression analysis was then conducted to determine the theoretical dose that would produce a 50% reduction of activity (ED50) and 95% confidence interval.

C57 BK/6 mice = conditions: test phase, FIGS. 5 and 6
Experimental: Subjects were male, C57 BK/6 mice purchased from Harlan Laboratories, weighing 15-20 g upon arrival. Animals were housed 8 per cage with food and water available ad libitum. Animals were housed on a 12 hr light cycle (lights on 6 am) for 4-7 days prior to behavioral testing.
Novel object recognition (NOR) was conducted in a novel environment consisting of a white plastic tub measuring 45.7×33.7×19 cm. Prior to each trial the bottom of the tub was covered with a piece of plastic lined bench top paper. There were two sets of identical objects chosen so that when given an opportunity to explore, mice would evenly divide exploration time between the objects. “A” objects were yellow, ceramic, 12-sided ramekins measuring 4 cm high×7 cm diameter. “B” objects were 8×8×4 cm stainless steel, 4-sided ramekins.
At the beginning of each test day, animals were placed in groups of 6 into clean cages. […]
During the sample phase, two identical objects (“A” or “B”, objects described above) were placed into the NOR chamber. […] The time spent exploring at each position was recorded. Directly sniffing or touching the object was recorded as exploration. […]
The test phase was conducted one to two hours after the sample phase. […] The test sessions were recorded on video and scored by an observer blind to each subject's treatment condition. Any time spent directly sniffing or touching an object was counted as exploration. […]

Row | Structure (SMILES) | functional activity (pEC50 or pKi) [1] | half-life [2] | pKi to dopamine receptors including D2 and D4 [3] | microsomal CLint [4] | amphetamine-induced activity, M1KO subjects ([5]; M1KO mice, amphetamine 3 mg/kg ip, FIG. 9) | amphetamine-induced activity, WT subjects ([5]; WT mice, amphetamine 3 mg/kg ip, FIG. 9) | percent inhibition of amphetamine-induced hyperactivity ([5]; as a function of pimavanserin dosage, FIG. 10) | locomotor activity, pimavanserin alone ([5]; no amphetamine, compared with vehicle controls, pimavanserin 0.03 or 0.3 mg/kg, FIG. 9) | distance traveled following amphetamine, amyloid β mice ([6]; amyloid β mice) | distance traveled following amphetamine, control mice ([6]; sham (control) mice) | patients with elevated liver transaminases [7] | total distance traveled ([8]; 15 minute session, FIGS. 1 and 3) | percent inhibition of amphetamine-induced hyperactivity ([8]; FIGS. 2 and 4) | percent of time spent exploring a novel object (C57 BK/6 mice)
1 | CC(C)COc1ccc(CNC(=O)N(Cc2ccc(F)cc2)C2CCN(C)CC2)cc1 [Pimavanserin, N-(1-methylpiperidin-4-yl)-N-(4-fluorophenylmethyl)-N′-(4-(2-methylpropyloxy)phenylmethyl)carbamide] | < 6 | ~55 h | < 6 | < 10 µL/min/mg | reversed the augmented amphetamine response | did not alter amphetamine-induced activity | increased the inhibition of amphetamine-induced hyperactivity | no significant effect on locomotor activity | reversed the augmented locomotor response to amphetamine | did not reduce the hyperactivity induced by amphetamine | – | – | – | –
2 | Nc1c2c(nc3ccccc13)CCCC2 [tacrine] | – | – | – | – | – | – | – | – | – | – | about 30% | total distance traveled decreased | greater inhibition of amphetamine-induced hyperactivity | also increased
